Data published in US20210040118A1, “IMMUNOMODULATORS, COMPOSITIONS AND METHODS THEREOF” (BETTA PHARMACEUTICALS CO., LTD, priority 2018, published 2021).

What follows are compounds tested against T1, PD-1/PD-L1 (Homo sapiens, UniProt Q9NZQ7) (assay: PD-1/PD-L1 homogenous time-resolved fluorescence (HTRF) binding assay). Details: recombinant human PD-L1 (19-238) His-tag / human PD-1 (25-167) Fc tag, class symbols.
T1 construct: Recombinant human PD-L1 protein (19-238) with a His-tag at the C-terminus; purchased AcroBiosystems PD1-H5229 (PD-L1); PD1-H5257 (PD-1)
T1 sequence (Q9NZQ7 19-238): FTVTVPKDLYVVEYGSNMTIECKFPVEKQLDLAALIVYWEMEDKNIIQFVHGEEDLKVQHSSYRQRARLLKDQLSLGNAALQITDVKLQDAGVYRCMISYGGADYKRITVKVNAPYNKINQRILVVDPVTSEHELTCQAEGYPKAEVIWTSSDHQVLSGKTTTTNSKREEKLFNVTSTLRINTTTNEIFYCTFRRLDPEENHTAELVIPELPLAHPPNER
Procedure: Resolved Fluorescence (HTRF) Binding Assay
The assays were conducted in a standard black 384-well polystyrene plate with a final volume of 20 μL. Inhibitors were first serially diluted in DMSO and then added to the plate wells before the addition of other reaction components. The final concentration of DMSO in the assay was 1%. The assays were carried out at 25° C. in the PBS buffer (pH 7.4) with 0.05% Tween-20 and 0.1% BSA. Recombinant human PD-L1 protein (19-238) with a His-tag at the C-terminus was purchased from AcroBiosy stems (PD1-H5229). Recombinant human PD-1 protein (25-167) with Fc tag at the C-terminus was also purchased from AcroBiosystems (PD1-H5257). PD-L1 and PD-1 proteins were diluted in the assay buffer and 10 μL was added to the plate well. Plates were centrifuged and proteins were preincubated with inhibitors for 40 min. The incubation was followed by the addition of […] of HTRF detection buffer supplemented with Europium cryptate-labeled anti-human IgG (PerkinElmer-AD0212) specific for Fc and anti-His antibody conjugated to SureLight®-Allophycocyanin (APC, PerkinElmer-AD0059H). After centrifugation, the plate was incubated at 25° C. for 60 min. Before reading on a PHERAstar FS plate reader (665 nm/620 nm ratio). Final concentrations in the assay were […] PD1, 10 nM PD-L1, 1 nM europium anti-human IgG and 20 nM anti-His-Allophycocyanin. IC50 determination was performed by fitting the curve of percent control activity versus the log of the inhibitor concentration using the GraphPad Prism 5.0 software.
Data obtained for the Example compounds using the PD-1/PD-L1 homogenous time-resolved fluorescence (HTRF) binding assay described in Example A is provided in Table 4.
`Cc1c(-c2cccc(N(C)Cc3nc4c(s3)CNCC4)c2C)cccc1N(C)Cc1nc2c(s1)CNCC2` [Example 24, N3,N3′,2,2′-tetramethyl-N3,N3′-bis((4,5,6,7-tetrahydrothiazolo[5,4-c]pyridin-2-yl)methyl)-[1,1′-biphenyl]-3,3′-diamine] showed an IC50 of 100 to 200 nM. For `Cc1c(NCc2nc3c(s2)CNCC3)cccc1-c1cccc(NCc2nc3c(s2)CNCC3)c1C` [Example 25, 2,2′-dimethyl-N3,N3′-bis((4,5,6,7-tetrahydrothiazolo[5,4-c]pyridin-2-yl)methyl)-[1,1′-biphenyl]-3,3′-diamine], the IC50 was 25 to 100 nM. In the case of `Cc1c(NCc2nnc(C3(N)CCC3)s2)cccc1-c1cccc(NCc2nnc(C3(N)CCC3)s2)c1C` [Example 26, N3,N3′-bis((5-(1-aminocyclobutyl)-1,3,4-thiadiazol-2-yl)methyl)-2,2′-dimethyl-[1,1′-biphenyl]-3,3′-diamine], the IC50 is reported as 25 to 100 nM. Work on `Cc1nc(C(=O)Nc2cccc(-c3cccc(NC(=O)c4nc(C)c(CN5CCCC5)s4)c3C)c2C)sc1CN1CCCC1` [Example 28, N,N′-(2,2′-dimethyl-[1,1′-biphenyl]-3,3′-diyl)bis(4-methyl-5-(pyrrolidin-1-ylmethyl)thiazole-2-carboxamide)] yielded an IC50 of under 25 nM. `Cc1c(NC(=O)c2ncc(CN3CCCC3)s2)cccc1-c1cccc(NC(=O)c2ncc(CN3CCCC3)s2)c1C` [Example 29, N,N′-(2,2′-dimethyl-[1,1′-biphenyl]-3,3′-diyl)bis(5-(pyrrolidin-1-ylmethyl)thiazole-2-carboxamide)] showed an IC50 of under 25 nM. `Cc1c(NC(=O)c2nc3c(s2)CNCCC3)cccc1-c1cccc(NC(=O)c2nc3c(s2)CNCCC3)c1C` [Example 30, N,N′-(2,2′-dimethyl-[1,1′-biphenyl]-3,3′-diyl)bis(5,6,7,8-tetrahydro-4H-thiazolo[5,4-c]azepine-2-carboxamide)] showed an IC50 of under 25 nM. `Cc1c(NC(=O)c2nnc([C@H](C)N)s2)cccc1-c1cccc(NC(=O)c2nnc([C@H](C)N)s2)c1C` [Example 31, N,N′-(2,2′-dimethyl-[1,1′-biphenyl]-3,3′-diyl)bis(5-((S)-1-aminoethyl)-1,3,4-thiadiazole-2-carboxamide)] gave an IC50 of under 25 nM. In the case of `Cc1c(-c2cccc(N(C)C(=O)c3cc4c(s3)CCNC4)c2C)cccc1N(C)C(=O)c1cn2c(n1)CNCC2` [Example 34, N-(2,2′-dimethyl-3′-(N-methyl-5,6,7,8-tetrahydroimidazo[1,2-a]pyrazine-2-carboxamido)-[1,1′-biphenyl]-3-yl)-N-methyl-4,5,6,7-tetrahydrothieno[3,2-c]pyridine-2-carboxamide], the IC50 is reported as under 25 nM. Work on `Cc1c(NC(=O)c2cn3c(n2)CNCC3)cccc1-c1cccc(NC(=O)c2cc3c(s2)CCNC3)c1C` [Example 35, N-(2,2′-dimethyl-3′-(5,6,7,8-tetrahydroimidazo[1,2-a]pyrazine-2-carboxamido)-[1,1′-biphenyl]-3-yl)-4,5,6,7-tetrahydrothieno[3,2-c]pyridine-2-carboxamide] yielded an IC50 of under 25 nM. `Cc1c(NC(=O)c2cn3c(n2)CN(C(C)CO)CC3)cccc1-c1cccc(NC(=O)c2cn3c(n2)CN(C(C)CO)CC3)c1C` (stereo not drawn) [Example 36, N,N′-(2,2′-dimethyl-[1,1′-biphenyl]-3,3′-diyl)bis(7-(1-hydroxypropan-2-yl)-5,6,7,8-tetrahydroimidazo[1,2-a]pyrazine-2-carboxamide)] was tested, and the IC50 was under 25 nM. `Cc1c(NC(=O)c2nnc(CNC(=N)N)s2)cccc1-c1cccc(NC(=O)c2nnc(CNC(=N)N)s2)c1C` [Example 37, N,N′-(2,2′-dimethyl-[1,1′-biphenyl]-3,3′-diyl)bis(5-(guanidinomethyl)-1,3,4-thiadiazole-2-carboxamide)] was tested, and the IC50 was under 25 nM. `Cc1c(NC(=O)c2nnc(C3(NC(=N)N)CCC3)s2)cccc1-c1cccc(NC(=O)c2nnc(C3(NC(=N)N)CCC3)s2)c1C` [Example 38, N,N′-(2,2′-dimethyl-[1,1′-biphenyl]-3,3′-diyl)bis(5-(1-guanidinocyclobutyl)-1,3,4-thiadiazole-2-carboxamide)] showed an IC50 of under 25 nM. With `Cc1c(NC(=O)c2nnc3n2CCNC3)cccc1-c1cccc(NC(=O)c2nnc3n2CCNC3)c1C` [Example 39, N,N′-(2,2′-dimethyl-[1,1′-biphenyl]-3,3′-diyl)bis(5,6,7,8-tetrahydro-[1,2,4]triazolo[4,3-a]pyrazine-3-carboxamide)] the IC50 was under 25 nM. With `N#Cc1c(NC(=O)c2cn3c(n2)CNCC3)cccc1-c1cccc(NC(=O)c2cn3c(n2)CNCC3)c1C#N` [Example 40, N,N′-(2,2′-dicyano-[1,1′-biphenyl]-3,3′-diyl)bis(5,6,7,8-tetrahydroimidazo[1,2-a]pyrazine-2-carboxamide)] the IC50 was under 25 nM. With `Cc1c(NC(=O)c2nnc(C3CCCN3)o2)cccc1-c1cccc(NC(=O)c2nnc(C3CCCN3)o2)c1C` (stereo not drawn) [Example 41, N,N′-(2,2′-dimethyl-[1,1′-biphenyl]-3,3′-diyl)bis(5-(pyrrolidin-2-yl)-1,3,4-oxadiazole-2-carboxamide)] the IC50 was under 25 nM. `Cc1c(NC(=O)c2cn3c(n2)CNCC3)cccc1-c1cccc(NC(=O)c2cc3c(s2)CNCC3)c1C` [Example 42, N-(2,2′-dimethyl-3′-(5,6,7,8-tetrahydroimidazo[1,2-a]pyrazine-2-carboxamido)-[1,1′-biphenyl]-3-yl)-4,5,6,7-tetrahydrothieno[2,3-c]pyridine-2-carboxamide] showed an IC50 of under 25 nM. For `Cc1c(NC(=O)c2nc3c(s2)CN(C(C)CO)CC3)cccc1-c1cccc(NC(=O)c2nc3c(s2)CN(C(C)CO)CC3)c1C` (stereo not drawn) [Example 45, N,N′-(2,2′-dimethyl-[1,1′-biphenyl]-3,3′-diyl)bis(5-(1-hydroxypropan-2-yl)-4,5,6,7-tetrahydrothiazolo[5,4-c]pyridine-2-carboxamide)], the IC50 was under 25 nM. `CC(c1nc2c(s1)CN(C)CC2)N1CCc2c(-c3cccc4c3CCN4C(C)c3nc4c(s3)CN(C)CC4)cccc21` (stereo not drawn) [Example 47, 1,1′-bis(1-(5-methyl-4,5,6,7-tetrahydrothiazolo[5,4-c]pyridin-2-yl)ethyl)-4,4′-biindoline] gave an IC50 of under 25 nM. `Cc1c(NC(=O)c2nc3c(s2)CNCC3)cccc1-c1cccc(NC(=O)c2nc3c(s2)CNCC3)c1Cl` [Example 48, N,N′-(2-chloro-2′-methylbiphenyl-3,3′-diyl)bis(4,5,6,7-tetrahydrothiazolo[5,4-c]pyridine-2-carboxamide)] was tested, and the IC50 was under 25 nM. For `Cc1c(NC(=O)c2nc3c(s2)CN(C)CC3)cccc1-c1cccc(NC(=O)c2nc3c(s2)CN(C)CC3)c1Cl` [Example 49, N,N′-(2-chloro-2′-methylbiphenyl-3,3′-diyl)bis(5-methyl-4,5,6,7-tetrahydrothiazolo[5,4-c]pyridine-2-carboxamide)], the IC50 was under 25 nM. With `Cc1c(NC(=O)c2nc3c(s2)CNCC3)cccc1-c1cccc(NC(=O)c2nc3c(s2)CN(C)CC3)c1Cl` [Example 50, N-(2-chloro-2′-methyl-3′-(4,5,6,7-tetrahydrothiazolo[5,4-c]pyridine-2-carboxamido)biphenyl-3-yl)-5-methyl-4,5,6,7-tetrahydrothiazolo[5,4-c]pyridine-2-carboxamide] the IC50 was under 25 nM. `Cc1nc(C(=O)Nc2cccc(-c3cccc(NC(=O)c4nc(C)c(CNCCO)s4)c3C)c2C)sc1CNCCO` [Example 51, N,N′-(2,2′-dimethylbiphenyl-3,3′-diyl)bis(5-((2-hydroxyethylamino)methyl)-4-methylthiazole-2-carboxamide)] showed an IC50 of under 25 nM. For `Cc1nc(C(=O)Nc2cccc(-c3cccc(NC(=O)c4nc(C)c(CN5CCCC[C@H]5C(=O)O)s4)c3C)c2C)sc1CN1CCCC[C@H]1C(=O)O` [Example 52, (2S,2'S)-1,1′-(2,2′-(2,2′-dimethylbiphenyl-3,3′-diyl)bis(azanediyl)bis(oxomethylene)bis(4-methylthiazole-5,2-diyl))bis(methylene)dipiperidine-2-carboxylic acid], the IC50 was under 25 nM.

Same assay, conditions: recombinant human PD-L1 (19-238) His-tag / human PD-1 (25-167) Fc tag, numeric values
`Cc1c(NC(=O)c2nnc(C3(N)CCC3)s2)cccc1-c1cccc(NC(=O)c2nnc(C3(N)CCC3)s2)c1C` [Example 27, N,N′-(2,2′-dimethyl-[1,1′-biphenyl]-3,3′-diyl)bis(5-(1-aminocyclobutyl)-1,3,4-thiadiazole-2-carboxamide)] gave an IC50 of 3.13 nM. With `Cc1c(NC(=O)c2cc3c(s2)CNCC3)cccc1-c1cccc(NC(=O)c2cc3c(s2)CNCC3)c1C` [Example 32, N,N′-(2,2′-dimethyl-[1,1′-biphenyl]-3,3′-diyl)bis(4,5,6,7-tetrahydrothieno[2,3-c]pyridine-2-carboxamide)] the IC50 was 18.1 nM. `O=C(c1nc2c(s1)CNCC2)N1CCc2c(-c3cccc4c3CCN4C(=O)c3nc4c(s3)CNCC4)cccc21` [Example 33, [4,4′-biindoline]-1,1′-diylbis((4,5,6,7-tetrahydrothiazolo[5,4-c]pyridin-2-yl)methanone)] gave an IC50 of 0.21 nM. Work on `CN1CCc2nc(C(=O)Nc3cccc(-c4cccc(NC(=O)c5nc6c(s5)CN(C)CC6)c4Cl)c3Cl)sc2C1` [Example 44, N,N′-(2,2′-dichloro-[1,1′-biphenyl]-3,3′-diyl)bis(5-methyl-4,5,6,7-tetrahydrothiazolo[5,4-c]pyridine-2-carboxamide)] yielded an IC50 of 0.62 nM.
